Holding throughout (assay): Cell proliferation assay (Alamar Blue)
Holding throughout (format): cell-based
In general terms: The colour change of resazurin is a common sign of viable cells or microbes.

Experiment [1] has as its system HCT-116. The following applies: Homo sapiens, 96 h, HCT-116 cells, four days.
The test system of experiment [2] is MiaPaCa. The following applies: Homo sapiens, MIA PaCa-2, 96 h, MiaPaCa cells, four days. The protocol:
(§1) A representative cell-proliferation assay protocol using Alamar Blue dye (stored at 4°C, use 20ul per well) is described hereafter. 96-well plate setup and compound treatment • a. Split and trypsinize cells. • b. Count cells using hemocytometer. • c. Plate 4,000-5,000 cells per well in 100 µl of medium and seed into a 96-well plate according to the following plate layout. Add cell culture medium only to wells B10 to B12. Wells B1 to B9 have cells but no compound added. [formula] [formula] • d. Add 100 µl of 2X drug dilution to each well in a concentration shown in the plate layout above. At the same time, add 100 µl of media into the control wells (wells B10 to B12). Total volume is 200 µl/well. • e. Incubate four (4) days at 37°C, 5% CO2 in a humidified incubator. • f. Add 20µl Alamar Blue reagent to each well. • g. Incubate for four (4) hours at 37°C, 5% CO2 in a humidified incubator. • h. Record fluorescence at an excitation wavelength of 544nm and emission wavelength of 590nm using a microplate reader.
(§2) In the assays, cells are cultured with a test compound for approximately four days, the dye then is added to the cells and fluorescence of […] dye is detected after approximately four hours. Different types of cells can be utilized in the assays (e.g., HCT-116 human colorectal carcinoma cells, PC-3 human prostatic cancer cells and MiaPaca human pancreatic carcinoma cells). Anti-proliferative effects of representative compounds are provided hereafter.

The subject of experiment [3] is Jurkat. The following applies: Homo sapiens, 96 h, Jurkat cells, four days. The protocol:
as §1, §2

What is called IC50 is the concentration needed to halve the response being measured. Low readings indicate greater potency in that assay, high ones weaker potency in that assay.

Regarding `c1ccc(Nc2nc3cc(-c4nnn[nH]4)ccc3c3cnccc23)cc1`, the IC50 in experiment [1] was more than 10 µM.

The compound `N#Cc1ccc2c(c1)nc(Nc1ccccc1)c1ccncc12` registered an IC50 in experiment [1] of 6.9 µM.

In turn, `Cc1noc(-c2ccc3c(c2)nc(Nc2ccccc2)c2ccncc23)n1` came in with a half-inhibitory concentration (IC50) in experiment [1] of more than 10 µM.

For `COC(=O)c1ccc2c(c1)nc(Cl)c1ncncc12`, the IC50 in experiment [1] worked out at 1.71 µM; in experiment [2] it was 2.92 µM.

For the compound `COC(=O)c1ccc2c(c1)nc(Nc1cccc(Cl)c1)c1ccncc12`, the IC50 in experiment [1] and in experiment [2] was more than 10 µM throughout.

With `COC(=O)c1ccc2c(c1)nc(Nc1ccccc1)c1nc(SC)ncc12`, the IC50 in experiment [1] was 9.56 µM; in experiment [2], more than 10 µM.

With `COC(=O)c1ccc2c(c1)nc(Nc1ccccc1)c1nc(S(C)(=O)=O)ncc12`, the IC50 worked out at 0.97 µM in experiment [1] and 2.82 µM in experiment [2].

Regarding `CNc1ncc2c(n1)c(Nc1ccccc1)nc1cc(C(=O)OC)ccc12`, the values for the concentration for half-maximal inhibition (IC50) in experiment [1] and in experiment [2] were 4.06 µM and more than 10 µM, respectively.

As for `OCc1ccc2c(c1)nc(Nc1cccc(Cl)c1)c1ccncc12`, the IC50 was 4.28 µM in experiment [1] and 4.05 µM in experiment [2].

For `O=C(O)c1ccc2c(c1)nc(Nc1ccccc1)c1nc(NC3CC3)ncc12` [drawing 318], the IC50 in experiment [1] was determined as 1.94 µM; in experiment [3], 2.42 µM; in experiment [2], 0.68 µM.

For the compound `CCCNc1ncc2c(n1)c(Nc1ccccc1)nc1cc(C(=O)O)ccc12` [drawing 319], the IC50 in experiment [1] is more than 10 µM; in experiment [3], 4.53 µM; in experiment [2], 2.99 µM.

As to `COCCNc1ncc2c(n1)c(Nc1ccccc1)nc1cc(C(=O)O)ccc12` [drawing 320], the IC50 is more than 10 µM in experiment [1], 5.8 µM in experiment [3] and 3.2 µM in experiment [2].

With `O=C(O)c1ccc2c(c1)nc(Nc1ccccc1)c1nc(NCCO)ncc12` [drawing 321], the results for the IC50 in experiment [1], in experiment [3] and in experiment [2] were more than 10 µM, 26.1 µM and 16.2 µM, respectively.

Regarding `O=C(O)c1ccc2c(c1)nc(Nc1ccccc1)c1nc(NCCCO)ncc12` [drawing 322], the IC50 in experiment [1] was more than 10 µM; in experiment [3], 7.9 µM; in experiment [2], 11.9 µM.

On to `O=C(O)c1ccc2c(c1)nc(Nc1ccccc1)c1nc(NC3CCNCC3)ncc12` [drawing 323], for which the IC50 in experiment [1] is more than 10 µM; in experiment [3], 18.9 µM; in experiment [2] it was 14.4 µM.

Regarding `CCN(CC)CCNc1ncc2c(n1)c(Nc1ccccc1)nc1cc(C(=O)O)ccc12` [drawing 324], the IC50 in experiment [1] is more than 10 µM; in experiment [3] it was 13.1 µM; in experiment [2] it was 1.45 µM.

As to `O=C(O)c1ccc2c(c1)nc(Nc1ccccc1)c1nc(NCCN3CCOCC3)ncc12` [drawing 325], the IC50 in experiment [1] was more than 10 µM; in experiment [3] it was 5.7 µM; in experiment [2], 1.69 µM.

For `O=C(O)c1ccc2c(c1)nc(Nc1ccccc1)c1nc(NCCCN3CCOCC3)ncc12` [drawing 326], the values for the IC50 in experiment [1], in experiment [3] and in experiment [2] were more than 10 µM, 2.18 µM and 1.36 µM, respectively.

In the case of `C#Cc1cccc(Nc2nc3cc(C(=O)O)ccc3c3cnc(NC4CC4)nc23)c1` [drawing 327], the values for the concentration for half-maximal inhibition (IC50) in experiment [1], in experiment [3] and in experiment [2] were 7.3 µM, 1.27 µM and 1.2 µM, respectively.

In the case of `C#Cc1cccc(Nc2nc3cc(C(=O)O)ccc3c3cnc(NCCC)nc23)c1` [drawing 328], the half-inhibitory concentration (IC50) in experiment [1] was more than 10 µM; in experiment [3], 2.67 µM; in experiment [2] it was 2.32 µM.

For `C#Cc1cccc(Nc2nc3cc(C(=O)O)ccc3c3cnc(NCCOC)nc23)c1` [drawing 329], the IC50 in experiment [1] came to 8.05 µM; in experiment [3], 0.94 µM; in experiment [2], 1 µM.

Regarding `C#Cc1cccc(Nc2nc3cc(C(=O)O)ccc3c3cnc(NC4CCNCC4)nc23)c1` [drawing 330], the IC50 in experiment [1] is more than 10 µM; in experiment [3] it was 9.55 µM; in experiment [2], 8.62 µM.

For the compound `C#Cc1cccc(Nc2nc3cc(C(=O)O)ccc3c3cnc(NCCCN4CCOCC4)nc23)c1` [drawing 331], the IC50 was more than 10 µM in experiment [1], 3.69 µM in experiment [3] and 2.26 µM in experiment [2].

As to `C#Cc1cccc(Nc2nc3cc(C(=O)O)ccc3c3cnc(NC)nc23)c1` [drawing 332], the concentration for half-maximal inhibition (IC50) in experiment [1] amounted to 4.69 µM; in experiment [3], 1.29 µM; in experiment [2] it was 2.34 µM.

Take `O=C(O)c1ccc2c(c1)nc(Nc1ccc(Cl)c(C(F)(F)F)c1)c1ccncc12` [drawing 333]: the IC50 in experiment [1] is 3.99 µM; in experiment [3], 3.05 µM; in experiment [2], 9.09 µM.

Regarding `O=C(O)c1ccc2c(c1)nc(Nc1cccc(Cl)c1)c1nc(NC3CC3)ncc12` [drawing 334], the figures for the IC50 in experiment [1], in experiment [3] and in experiment [2] were 7.82 µM, 1.29 µM and 0.47 µM, respectively.

Consider `O=C(O)c1ccc2c(c1)nc(Nc1cccc(C(F)(F)F)c1)c1ncncc12` [drawing 335], for which the results for the IC50 in experiment [1], in experiment [3] and in experiment [2] were more than 10 µM, 2.53 µM and 2.23 µM, respectively.

Take `CCOc1ncc2c(n1)c(Nc1cccc(C(F)(F)F)c1)nc1cc(C(=O)O)ccc12` [drawing 336]: the IC50 is more than 10 µM in experiment [1], 35.9 µM in experiment [3] and 18.1 µM in experiment [2].

As for `Nc1ncc2c(n1)c(Nc1cccc(Cl)c1)nc1cc(C(=O)O)ccc12` [drawing 339], the 50% inhibitory concentration (IC50) in experiment [1] is more than 10 µM; in experiment [3] it was 1.14 µM; in experiment [2], 0.88 µM.

Turning to `CC(C)Nc1ncc2c(n1)c(Nc1cccc(Cl)c1)nc1cc(C(=O)O)ccc12` [drawing 340], the figures for the IC50 in experiment [1], in experiment [3] and in experiment [2] were more than 10 µM, 18.4 µM and 5.45 µM, respectively.

Take `O=C(O)c1ccc2c(c1)nc(Nc1cccc(C(F)(F)F)c1)c1nc(NC3CC3)ncc12` [drawing 341]: the 50% inhibitory concentration (IC50) in experiment [3] is 3.13 µM; in experiment [2] it was 0.65 µM.

`CCNc1ncc2c(n1)c(Nc1cccc(Cl)c1)nc1cc(C(=O)O)ccc12` [drawing 342]: the figures for the IC50 in experiment [3] and in experiment [2] were 3.06 µM and 0.92 µM, respectively.

With `CNc1ncc2c(n1)c(Nc1ccc(F)c(Cl)c1)nc1cc(C(=O)O)ccc12` [drawing 343], the IC50 is more than 10 µM in experiment [1], 1.24 µM in experiment [3] and 0.65 µM in experiment [2].

As for `Nc1ncc2c(n1)c(Nc1ccc(F)c(Cl)c1)nc1cc(C(=O)O)ccc12` [drawing 344], the figures for the IC50 in experiment [1], in experiment [3] and in experiment [2] were 11.2 µM, 4.34 µM and 0.95 µM, respectively.

As to `O=C(O)c1ccc2c(c1)nc(Nc1ccc(F)c(Cl)c1)c1nc(NC3CC3)ncc12` [drawing 345], the IC50 in experiment [1] is more than 10 µM; in experiment [3], 1.54 µM; in experiment [2] it was 0.37 µM.

`COCCNc1ncc2c(n1)c(Nc1ccc(F)c(Cl)c1)nc1cc(C(=O)O)ccc12` [drawing 346]: the IC50 in experiment [1] is more than 10 µM; in experiment [3], 0.41 µM; in experiment [2], 1.08 µM.

Turning to `C#Cc1cccc(Nc2nc3cc(C(=O)O)ccc3c3cnc(NCCOCC)nc23)c1` [drawing 347], the IC50 was more than 10 µM in experiment [1], 1.13 µM in experiment [3] and 0.62 µM in experiment [2].

In the case of `C#Cc1cccc(Nc2nc3cc(C(=O)O)ccc3c3cnc(NCCCOCC)nc23)c1` [drawing 348], the IC50 in experiment [1] was more than 10 µM; in experiment [3], 0.39 µM; in experiment [2], 0.87 µM.

Consider `C#Cc1cccc(Nc2nc3cc(C(=O)O)ccc3c3cnc(NCCCOC(C)C)nc23)c1` [drawing 349], for which the IC50 was more than 10 µM in experiment [1], 2.37 µM in experiment [3] and 2.01 µM in experiment [2].

Take `O=C(O)c1ccc2c(c1)nc(Nc1cccc(Cl)c1)c1nc(O)ncc12` [drawing 350]: the IC50 is more than 10 µM in experiment [1], more than 50 µM in experiment [3] and more than 50 µM in experiment [2].

Regarding `Cc1ncc2c(n1)c(Nc1cccc(Cl)c1)nc1cc(C(=O)O)ccc12` [drawing 351], the IC50 in experiment [1] was more than 10 µM; in experiment [3], 4.95 µM; in experiment [2], 5.39 µM.

Take `C#Cc1cccc(Nc2nc3cc(C(=O)OC)ccc3c3cnc(NOC)nc23)c1` [drawing 352]: the IC50 in experiment [1] is more than 10 µM; in experiment [3] it was 27 µM; in experiment [2], more than 50 µM.

Regarding `COC(=O)c1ccc2c(c1)nc(Nc1cccc(Cl)c1)c1nc(NCCC(N)=O)ncc12` [drawing 353], the IC50 was more than 10 µM in experiment [1], 4.41 µM in experiment [3] and 17.1 µM in experiment [2].

For `NC(=O)CCNc1ncc2c(n1)c(Nc1cccc(Cl)c1)nc1cc(C(=O)O)ccc12` [drawing 354], the IC50 in experiment [1] is more than 10 µM; in experiment [3], 37.7 µM; in experiment [2], more than 50 µM.

As to `O=C(O)CCNc1ncc2c(n1)c(Nc1cccc(Cl)c1)nc1cc(C(=O)O)ccc12` [drawing 355], the IC50 is more than 10 µM in experiment [1], more than 50 µM in experiment [3] and more than 50 µM in experiment [2].

Consider `O=C(NC1CC1)c1ccc2c(c1)nc(Nc1cccc(C(F)(F)F)c1)c1nc(NC3CC3)ncc12` [drawing 365], for which the IC50 in experiment [1] is more than 10 µM; in experiment [3], 3.92 µM.

On to `CC(C)OC(=O)Nc1ccc2c(c1)nc(Nc1cccc(C(F)(F)F)c1)c1nc(NC3CC3)ncc12` [drawing 370], for which the IC50 in experiment [1] is more than 10 µM; in experiment [3], 1.16 µM.

Values taken from patent publication EP2061765B1, “Serine-threonine protein kinase and PARP modulators” (Senhwa Biosciences, Inc., priority 2006, dated 2008).
